# Results reported in ChEMBL document CHEMBL1201862, “PubChem BioAssay data set” (2004).
# Activity calls are given as the source filed them.
# Columns and labels:
# [1] = Luminescence Cell-Based Dose Confirmation HTS to Identify Activators of 5'UTR Stem-Loop Driven Alpha-Synuclein mRNA Translation in H4 Neuroglioblastoma Cells. [Related pubchem assays: 1829 (Project Summary), 1814 (Primary HTS)]; format: functional
# [2] = Luminescence Cell-Based Dose Response HTS to Identify Activators of Luciferase Translation or Activity in H4 […] Cells. [Related pubchem assays: 1829 (Project Summary), 1814 (Primary HTS)]; format: functional
# H4 = test: Luminescence Cell-Based Dose Response HTS to Identify Activators of 5'UTR Stem-Loop Driven Prion Protein mRNA Translation in H4 Neuroglioblastoma Cells. [Related pubchem assays: 1829 (Project Summary), 1814 (Primary HTS)]; format: functional; conditions: Homo sapiens
# [3] = THP-1 cell cytotoxicity, dose response, cytotoxicity control for non-replicating M. tuberculosis project (AID 489025); format: functional
# [4] = Luminescence Cell-Based Dose Retest to Confirm Inhibitors of Cancer Stem Cells. [Related pubchem assays (depositor defined):AID2717, AID2721]; format: functional, Homo sapiens; conditions: Homo sapiens
# [5] = Vero E6 cell cytotoxicity, dose response, cytotoxicity control for non-replicating M. tuberculosis project, secondary assay (AID 492998); format: functional, VeroE6; conditions: Vero C1008
# cells = format: functional
# [6] = molecular target: Nuclear receptor subfamily 5 group A member 2 (Homo sapiens, UniProt O00482); format: functional, cell-based;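 also: HEK293T cells transfected with LRH-1 and a StAR promoter luciferase reporter; potency for inhibitors that lower LRH-1 driven reporter light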
# Nuclear receptor subfamily 5 group A member 2, sequence (O00482 whole entry): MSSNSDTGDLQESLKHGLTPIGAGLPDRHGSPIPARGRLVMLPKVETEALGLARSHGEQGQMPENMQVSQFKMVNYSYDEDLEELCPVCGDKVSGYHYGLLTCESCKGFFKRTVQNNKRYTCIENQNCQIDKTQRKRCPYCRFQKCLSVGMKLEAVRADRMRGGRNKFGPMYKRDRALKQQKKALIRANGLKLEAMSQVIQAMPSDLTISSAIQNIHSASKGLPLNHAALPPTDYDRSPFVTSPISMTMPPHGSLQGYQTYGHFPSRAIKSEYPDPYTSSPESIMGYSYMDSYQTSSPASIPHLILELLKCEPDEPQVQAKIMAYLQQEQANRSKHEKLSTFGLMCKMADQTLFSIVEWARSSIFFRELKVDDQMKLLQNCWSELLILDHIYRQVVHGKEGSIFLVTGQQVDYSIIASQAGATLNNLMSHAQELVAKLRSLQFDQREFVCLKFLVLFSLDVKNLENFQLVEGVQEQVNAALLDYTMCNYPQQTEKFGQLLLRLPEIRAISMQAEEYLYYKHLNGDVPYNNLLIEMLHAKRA
# Steroidogenic factor 1 = Steroidogenic factor 1 (Homo sapiens, UniProt Q13285); test: Counterscreen for inverse agonists of the liver receptor homolog-1 (LRH-1; NR5A2): Luminescence-based cell-based high throughput dose response assay to identify inverse agonists of the Steroidogenic Factor 1 Nuclear Receptor (SF1; NR5A1).; format: functional
# Steroidogenic factor 1, sequence (Q13285 whole entry): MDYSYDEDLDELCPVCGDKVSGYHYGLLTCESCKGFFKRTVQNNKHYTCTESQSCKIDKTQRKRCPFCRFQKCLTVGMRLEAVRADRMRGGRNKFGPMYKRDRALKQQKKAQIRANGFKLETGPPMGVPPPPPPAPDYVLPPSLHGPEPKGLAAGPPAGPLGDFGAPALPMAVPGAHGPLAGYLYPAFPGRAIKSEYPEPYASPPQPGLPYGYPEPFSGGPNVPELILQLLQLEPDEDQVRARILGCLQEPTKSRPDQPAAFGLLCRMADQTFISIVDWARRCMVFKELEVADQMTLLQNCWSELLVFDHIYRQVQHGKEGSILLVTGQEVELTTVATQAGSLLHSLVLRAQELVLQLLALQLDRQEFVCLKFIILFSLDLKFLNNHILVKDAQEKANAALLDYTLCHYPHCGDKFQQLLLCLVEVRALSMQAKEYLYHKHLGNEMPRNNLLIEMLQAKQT
# [7] = StAR promoter reporter inhibition counter-screen, dose response, counter-screen for LRH-1 inverse agonist project, cell-based, luminescence, luciferase reporter (AID 651969); format: functional
# [8] = MDA-MB-231 cell growth inhibition, dose response, cytotoxicity control for RAD54 inhibitor project, CellTiter-Glo luminescence, cherry-pick (AID 651692); format: functional, cell-based
# [9] = molecular target: T1, DNA repair and recombination protein RAD54-like (Homo sapiens, UniProt Q92698); test: inhibitors of human RAD54 branch migration, confirmation, biochemical, fluorescence, cherry-picked samples, dose series (AID 651657); format: functional
# T1 sequence (Q92698 whole entry): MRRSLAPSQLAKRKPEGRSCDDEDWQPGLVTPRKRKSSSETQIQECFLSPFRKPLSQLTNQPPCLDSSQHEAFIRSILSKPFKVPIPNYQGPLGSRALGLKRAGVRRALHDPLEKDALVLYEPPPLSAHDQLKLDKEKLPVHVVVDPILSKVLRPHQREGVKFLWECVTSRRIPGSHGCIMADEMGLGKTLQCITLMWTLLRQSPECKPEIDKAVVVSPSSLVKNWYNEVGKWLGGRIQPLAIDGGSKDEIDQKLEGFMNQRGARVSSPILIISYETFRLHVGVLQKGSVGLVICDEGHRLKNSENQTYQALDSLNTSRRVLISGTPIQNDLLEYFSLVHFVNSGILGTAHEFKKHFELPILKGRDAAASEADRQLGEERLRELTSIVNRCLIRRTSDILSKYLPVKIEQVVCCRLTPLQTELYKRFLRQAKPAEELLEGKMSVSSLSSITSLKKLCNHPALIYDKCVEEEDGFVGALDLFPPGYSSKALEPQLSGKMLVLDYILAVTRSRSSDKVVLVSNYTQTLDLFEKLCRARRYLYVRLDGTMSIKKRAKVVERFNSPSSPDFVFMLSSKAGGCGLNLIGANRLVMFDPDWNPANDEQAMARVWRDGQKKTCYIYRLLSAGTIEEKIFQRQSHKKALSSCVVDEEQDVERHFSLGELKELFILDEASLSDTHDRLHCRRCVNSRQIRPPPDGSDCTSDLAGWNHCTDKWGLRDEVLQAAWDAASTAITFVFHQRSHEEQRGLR
# [10] = molecular target: T2, DNA repair protein RAD52 homolog (Homo sapiens, UniProt P43351); format: functional, biochemical
# T2 sequence (P43351 whole entry): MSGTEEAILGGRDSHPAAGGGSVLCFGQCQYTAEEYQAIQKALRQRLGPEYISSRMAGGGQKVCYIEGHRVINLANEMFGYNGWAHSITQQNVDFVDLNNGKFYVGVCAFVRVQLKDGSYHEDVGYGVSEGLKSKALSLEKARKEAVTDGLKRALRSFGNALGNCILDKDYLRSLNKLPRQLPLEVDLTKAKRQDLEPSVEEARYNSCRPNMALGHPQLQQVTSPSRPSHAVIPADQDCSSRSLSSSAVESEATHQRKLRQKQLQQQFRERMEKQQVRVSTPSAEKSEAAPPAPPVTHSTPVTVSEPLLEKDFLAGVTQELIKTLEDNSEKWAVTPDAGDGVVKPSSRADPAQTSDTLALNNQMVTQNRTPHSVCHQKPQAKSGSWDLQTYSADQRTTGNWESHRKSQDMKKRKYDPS
# BJ [11] = test: cytotoxicity toward BJ-TERT fibroblasts, dose response, cell-based, RAS-independent, luminescence (AID 1933); format: functional; conditions: Homo sapiens
# BJ [12] = test: cells; format: functional, cell-based; conditions: Homo sapiens
# BJ [13] = test: cytotoxicity toward BJ-TERT-LT-ST fibroblasts, dose response, cell-based, RAS-independent, luminescence (AID 1935); format: functional; conditions: Homo sapiens;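 also: BJ fibroblasts immortalized with TERT plus LT and ST oncogenes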
# [14] = cytotoxicity toward DRD oncogenic fibroblasts, dose response, cell-based, non-viral oncogenic, luminescence (AID 1934); format: functional; conditions: Homo sapiens
# BJ [15] = test: cytotoxicity toward Ras-transformed BJeLR fibroblasts, dose response, cell-based, alamar blue fluorescence, cherrypicked samples (AID 2631); format: functional; conditions: Homo sapiens;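 also: confirmatory dose-response assay in RAS-dependent BJ fibroblasts engineered with TERT, LT and ST, with cytotoxicity read by fluorescence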
# [16] = molecular target: T3, High affinity choline transporter 1 (Homo sapiens, UniProt Q9GZV3); test: CHT activators, dose response, cell-based, 10-point CRC, membrane potential dye (AID 602376); format: functional
# T3 sequence (Q9GZV3 whole entry): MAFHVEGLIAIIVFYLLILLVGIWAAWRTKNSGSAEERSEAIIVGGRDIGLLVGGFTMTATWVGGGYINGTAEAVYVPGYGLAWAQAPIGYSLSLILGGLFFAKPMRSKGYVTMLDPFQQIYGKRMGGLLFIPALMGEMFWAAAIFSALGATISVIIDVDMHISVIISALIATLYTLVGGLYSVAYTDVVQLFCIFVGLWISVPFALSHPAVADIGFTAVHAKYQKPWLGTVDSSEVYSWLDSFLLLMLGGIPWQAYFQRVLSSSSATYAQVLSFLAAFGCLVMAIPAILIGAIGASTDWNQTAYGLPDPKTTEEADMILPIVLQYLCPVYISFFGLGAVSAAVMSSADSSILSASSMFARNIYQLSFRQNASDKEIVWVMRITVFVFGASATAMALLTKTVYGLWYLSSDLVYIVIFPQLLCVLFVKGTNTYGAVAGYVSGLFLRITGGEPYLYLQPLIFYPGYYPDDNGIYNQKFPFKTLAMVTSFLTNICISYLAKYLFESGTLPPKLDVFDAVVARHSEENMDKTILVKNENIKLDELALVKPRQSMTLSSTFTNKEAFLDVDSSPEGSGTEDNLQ
# [17] = Fluorescence-based cell-based high throughput dose response assay for inhibitors of the interaction of nucleotide-binding oligomerization domain containing 2 (NOD2) and the receptor-interacting serine-threonine kinase 2 (RIPK2).; format: functional; conditions: Homo sapiens
# [18] = molecular target: T4, Corticotropin-releasing factor receptor 2/Corticotropin-releasing factor-binding protein (Homo sapiens, UniProt P24387+Q13324); test: Dose Response confirmation of uHTS hits for small molecule antagonists of the CRF-binding protein and CRF-R2 receptor complex.; format: functional; conditions: read-out: IC50_Mean
# T4 sequence (Q13324 whole entry): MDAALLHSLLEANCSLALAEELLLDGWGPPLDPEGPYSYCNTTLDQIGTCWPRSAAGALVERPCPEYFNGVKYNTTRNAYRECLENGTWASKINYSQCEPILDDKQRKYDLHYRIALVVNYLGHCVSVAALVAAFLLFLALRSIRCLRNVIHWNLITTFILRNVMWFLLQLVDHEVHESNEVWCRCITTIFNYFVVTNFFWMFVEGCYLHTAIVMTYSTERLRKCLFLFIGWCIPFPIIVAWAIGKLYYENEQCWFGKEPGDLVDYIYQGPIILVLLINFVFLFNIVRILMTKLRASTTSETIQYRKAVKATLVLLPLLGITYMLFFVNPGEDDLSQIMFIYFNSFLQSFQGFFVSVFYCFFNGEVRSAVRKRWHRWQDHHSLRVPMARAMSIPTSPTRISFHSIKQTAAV
# T4 sequence (P24387 whole entry): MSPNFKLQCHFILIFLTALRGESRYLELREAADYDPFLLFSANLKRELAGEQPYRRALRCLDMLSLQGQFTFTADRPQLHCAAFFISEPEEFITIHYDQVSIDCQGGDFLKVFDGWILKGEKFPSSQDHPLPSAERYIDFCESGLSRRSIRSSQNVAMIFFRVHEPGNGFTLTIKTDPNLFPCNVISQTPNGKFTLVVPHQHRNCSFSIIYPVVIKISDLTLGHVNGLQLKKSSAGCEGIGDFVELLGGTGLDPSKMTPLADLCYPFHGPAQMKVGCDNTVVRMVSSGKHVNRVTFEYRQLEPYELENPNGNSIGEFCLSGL
# [19] = molecular target: T4, Corticotropin-releasing factor receptor 2/Corticotropin-releasing factor-binding protein; test: activators of CRF receptor 2 with binding protein – uHTS hits, confirmation (AID 602473); format: functional; conditions: read-out: EC50_Mean
# [20] = CRF-BP/CRF-R2 complex antagonists, dose response, cell-based, uHTS hits, 384-well (AID 651639); format: functional, Homo sapiens; conditions: read-out: IC50_Mean
# [21] = molecular target: Luciferin 4-monooxygenase (Photinus pyralis, UniProt P08659); test: firefly luciferase enzyme inhibitors, dose response, biochemical, luminescence (AID 1891)
# Luciferin 4-monooxygenase, sequence (P08659 whole entry): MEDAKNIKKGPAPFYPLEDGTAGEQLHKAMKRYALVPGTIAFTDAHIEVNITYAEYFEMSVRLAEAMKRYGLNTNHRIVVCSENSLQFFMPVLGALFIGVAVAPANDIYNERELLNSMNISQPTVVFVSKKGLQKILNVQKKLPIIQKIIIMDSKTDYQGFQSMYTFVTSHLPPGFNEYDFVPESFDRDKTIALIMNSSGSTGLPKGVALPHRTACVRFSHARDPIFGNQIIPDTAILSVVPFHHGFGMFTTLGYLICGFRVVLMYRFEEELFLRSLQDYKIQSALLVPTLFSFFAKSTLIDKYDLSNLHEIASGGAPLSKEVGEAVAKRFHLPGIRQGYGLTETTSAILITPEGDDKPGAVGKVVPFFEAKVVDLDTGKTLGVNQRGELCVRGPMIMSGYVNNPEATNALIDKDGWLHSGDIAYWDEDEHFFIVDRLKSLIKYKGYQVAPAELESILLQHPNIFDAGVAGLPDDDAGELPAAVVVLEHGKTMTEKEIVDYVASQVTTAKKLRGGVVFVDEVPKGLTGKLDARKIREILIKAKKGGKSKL
# [22] = Luminescence Cell-Based Dose Confirmation HTS to Identify Inhibitors of Platelet Dense Granule Release. [Related pubchem assays: 1663 (Primary HTS), 1678 (Summary of Project)]; format: functional
# [23] = molecular target: Photoreceptor-specific nuclear receptor (Homo sapiens, UniProt Q9Y5X4); format: functional, cell-based;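 also: CHO-S cells with Gal4-NCOR and VP16-NR2E3 two-hybrid luciferase reporter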
# Photoreceptor-specific nuclear receptor, sequence (Q9Y5X4 whole entry, the tested form may be a part): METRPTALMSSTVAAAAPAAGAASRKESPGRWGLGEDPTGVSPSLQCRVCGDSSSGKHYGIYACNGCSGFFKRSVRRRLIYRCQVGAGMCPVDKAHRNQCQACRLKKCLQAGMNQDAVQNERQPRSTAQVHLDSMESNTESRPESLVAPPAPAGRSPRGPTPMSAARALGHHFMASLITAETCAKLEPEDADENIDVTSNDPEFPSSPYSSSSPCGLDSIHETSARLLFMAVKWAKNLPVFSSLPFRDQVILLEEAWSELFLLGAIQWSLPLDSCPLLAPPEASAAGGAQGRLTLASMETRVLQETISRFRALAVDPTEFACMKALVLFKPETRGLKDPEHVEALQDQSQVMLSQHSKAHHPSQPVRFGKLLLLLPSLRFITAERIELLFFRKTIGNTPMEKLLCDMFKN
# [24] = molecular target: T5, Low molecular weight phosphotyrosine protein phosphatase (Homo sapiens, UniProt P24666); format: functional; conditions: read-out: IC50_Mean
# T5 sequence (P24666 whole entry): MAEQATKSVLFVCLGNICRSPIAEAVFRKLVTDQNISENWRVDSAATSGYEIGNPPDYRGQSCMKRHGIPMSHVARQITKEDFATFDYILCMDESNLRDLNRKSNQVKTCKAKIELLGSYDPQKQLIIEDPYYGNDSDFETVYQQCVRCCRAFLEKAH
# [25] = molecular target: T5, Low molecular weight phosphotyrosine protein phosphatase; format: functional; conditions: read-out: IC50_Mean; remark: listed apart in the source
# [26] = molecular target: T6, Tyrosine-protein phosphatase non-receptor type 22 (Homo sapiens, UniProt Q9Y2R2); test: LYP phosphatase inhibition for selectivity, dose response, selectivity assay for LMPTP inhibitor project, biochemical, fluorescence, LYP catalytic domain (AID 652006); format: functional; conditions: read-out: IC50_Mean
# T6 sequence (Q9Y2R2 whole entry): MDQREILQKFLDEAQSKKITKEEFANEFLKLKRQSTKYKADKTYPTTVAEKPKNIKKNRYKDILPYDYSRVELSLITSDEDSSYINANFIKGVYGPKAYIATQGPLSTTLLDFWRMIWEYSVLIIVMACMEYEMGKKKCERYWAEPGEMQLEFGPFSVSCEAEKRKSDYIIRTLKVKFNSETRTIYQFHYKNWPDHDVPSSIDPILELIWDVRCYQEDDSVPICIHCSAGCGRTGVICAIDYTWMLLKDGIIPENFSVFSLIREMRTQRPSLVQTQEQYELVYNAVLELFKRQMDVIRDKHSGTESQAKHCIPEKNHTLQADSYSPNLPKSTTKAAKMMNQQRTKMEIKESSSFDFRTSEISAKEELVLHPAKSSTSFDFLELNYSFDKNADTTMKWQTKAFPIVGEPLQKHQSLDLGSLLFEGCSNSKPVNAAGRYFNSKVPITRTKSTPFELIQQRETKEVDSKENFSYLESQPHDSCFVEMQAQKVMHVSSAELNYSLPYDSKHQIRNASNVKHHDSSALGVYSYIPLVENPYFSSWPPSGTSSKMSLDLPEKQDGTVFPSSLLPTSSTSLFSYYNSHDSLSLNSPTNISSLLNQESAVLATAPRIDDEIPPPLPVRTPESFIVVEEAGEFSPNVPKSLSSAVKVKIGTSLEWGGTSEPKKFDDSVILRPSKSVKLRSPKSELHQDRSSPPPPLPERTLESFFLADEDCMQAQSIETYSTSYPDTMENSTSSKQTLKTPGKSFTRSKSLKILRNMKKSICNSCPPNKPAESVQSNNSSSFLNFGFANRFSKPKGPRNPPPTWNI
smiles,measurement,setting,value
O=C(Nc1ccc(S(=O)(=O)N2CCOCC2)cc1)c1ccc([N+](=O)[O-])o1,EC50,[1],> 120 µM (not active)
same,EC50,[2],> 120 µM (not active)
same,EC50,H4,> 120 µM (not active)
same,CC50,[3],4.04 µM (active)
same,AC50,[4],3.43 µM (active)
same,CC50,[5],3.98 µM (active)
same,IC50,cells,6.7 µM (active)
same,IC50,[6],10.8 µM (inactive)
same,IC50,Steroidogenic factor 1,443 nM (active)
same,IC50,[7],35.9 µM (inactive)
Cc1cc2oc3ccc(NCCC4CCCN4C)cc3c(=O)c2cc1C (centres undefined),AC50,[8],23.6 µM (active)
same,AC50,[9],14.7 µM (active)
same,AC50,[10],8.31 µM (active)
CCOC(=O)c1ccc(NC(=O)Nc2ccon2)cc1,EC50,BJ [11],401 nM (active)
same,EC50,BJ [12],20.1 µM (active)
same,EC50,BJ [13],469 nM (active)
same,EC50,[14],429 nM (active)
same,EC50,BJ [15],< 104 nM (active)
same,EC50,[16],8.42 µM (active)
same,IC50,[17],49.7 µM (inactive)
COC(=O)c1ccc(Sc2ccc(Cl)cc2)c(N)c1,IC50,[18],< 368 nM (active)
same,EC50,[19],> 53 µM (inactive)
same,IC50,[20],> 20 µM (inactive)
Cc1cccc(C)c1OCc1cc(C(=O)N2CCC(c3ccncc3)CC2)no1,EC50,[21],> 112 µM (not active)
same,EC50,[22],> 112 µM (not active)
same,IC50,[23],6.23 µM (active)
COc1ccccc1CNc1nc(NCc2ccc(NC(C)=O)cc2)c2sccc2n1,IC50,[24],5.86 µM (active)
same,IC50,[25],17.7 µM (active)
same,IC50,[26],50.4 µM (inactive)
